Assay results as given in US20220324865A1 (Bayer Aktiengesellschaft, priority 2018, published 2022).
Counter-ions that a name gives are not always drawn.

Target: T1, human EP3 receptor (Homo sapiens, UniProt P43115)
T1 construct: expressed in transfected cells; host or cells: CHO K1 (Chinese Hamster Ovary), stably co-transfected with Galpha16 and mitochondrial clytin
T1 sequence (P43115 1-390): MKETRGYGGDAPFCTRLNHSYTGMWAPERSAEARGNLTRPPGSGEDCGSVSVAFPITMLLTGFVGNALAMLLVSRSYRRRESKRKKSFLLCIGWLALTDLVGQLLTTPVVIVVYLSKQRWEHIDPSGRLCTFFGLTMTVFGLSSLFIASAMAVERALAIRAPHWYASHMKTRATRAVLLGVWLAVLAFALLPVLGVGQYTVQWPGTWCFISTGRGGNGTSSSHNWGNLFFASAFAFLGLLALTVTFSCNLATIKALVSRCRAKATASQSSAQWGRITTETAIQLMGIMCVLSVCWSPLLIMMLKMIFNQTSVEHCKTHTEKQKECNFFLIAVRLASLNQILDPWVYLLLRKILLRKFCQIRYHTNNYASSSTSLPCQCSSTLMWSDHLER
Experiment: Cellular in vitro assay for determining EP3 receptor activity (human EP3 cell line, sulprostone-stimulated calcium luminescence)
Format: cell-based
Conditions: CHO cells expressing human EP3 and mitochondrial Clytin; antagonist mode, sulprostone at EC50; read-out: EP3 CHO mtCLY ANTAG IC50
Summary of the method: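 CHO K1 cells stably expressing human EP3 with Gα16 and mitochondrial Clytin, loaded overnight with coelenterazine. Compounds added 10 min before sulprostone at its EC50; antagonism read immediately as reduced calcium-driven luminescence, quadruplicate points.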

Row | Compound | IC50
1 | Cc1c(C(=O)NC2(c3ccc(C#N)cc3)CC2)nn2c(C)c(-c3ccc4ccccc4c3)[nH]c(=O)c12 [Example 3-27, N-[1-(4-Cyanophenyl)cyclopropyl]-3,7-dimethyl-6-(naphthalen-2-yl)-4-oxo-4,5-dihydropyrazolo[1,5-a]pyrazine-2-carboxamide] | 2.1 nM
2 | COc1ccc2c(c1)OC(C)(C)CC2NC(=O)c1nn2cc(-c3cnc4cccc(C)c4c3)[nH]c(=O)c2c1C(C)C (stereo not shown) [Example 4-79, 3-Isopropyl-N-(7-methoxy-2,2-dimethyl-3,4-dihydro-2-chromen-4-yl)-6-(5-methylquinolin-3-yl)-4-oxo-4,5-dihydropyrazolo[1,5-a]pyrazine-2-carboxamide] | 7.6 nM
3 | CC(NC(=O)c1nn2cc(-c3ccc4ccccc4c3)[nH]c(=O)c2c1C(F)(F)F)c1ccc(OCC(F)(F)F)cn1 (stereo not shown) [Example 1-30, 6-(2-Naphthyl)-4-oxo-N-[1-[5-(2,2,2-trifluoroethoxy)-2-pyridyl]ethyl]-3-(trifluoromethyl)-5H-pyrazolo[1,5-a]pyrazine-2-carboxamide trifluoroacetic acid salt] | 4.05 nM
4 | Cc1c(C(=O)NC(C)c2ccc(S(N)(=O)=O)cc2)nn2c(C)c(-c3ccc4ccccc4c3)[nH]c(=O)c12 (stereo not shown) [Example 3-18, 3,7-Dimethyl-6-(2-naphthyl)-4-oxo-N-[1-(4-sulfamoylphenyl)ethyl]-5H-pyrazolo[1,5-a]pyrazine-2-carboxamide] | 3.75 nM
5 | COCc1c(C(=O)NC2(c3ccc(F)cc3)CN(C)C2)nn2cc(-c3ccc4ccccc4c3)[nH]c(=O)c12 [Example 1-21, N-[3-(4-Fluorophenyl)-1-methylazetidin-3-yl]-3-(methoxymethyl)-6-(naphthalen-2-yl)-4-oxo-4,5-dihydropyrazolo[1,5-a]pyrazine-2-carboxamide] | 1.25 nM
6 | CC(C)(O)[C@@H](NC(=O)c1cc2c(=O)[nH]c(-c3ccc4c(c3)CCCC4)cn2n1)c1ccc(F)cc1 [Example 1-133, N-[(1S)-1-(4-Fluorophenyl)-2-hydroxy-2-methylpropyl]-4-oxo-6-(5,6,7,8-tetrahydronaphthalen-2-yl)-4,5-dihydropyrazolo[1,5-a]pyrazine-2-carboxamide] | 2.8 nM
7 | CCn1cc(CNC(=O)c2nn3cc(-c4cnc5cccc(C)c5c4)[nH]c(=O)c3c2C(C)C)c(C)n1 [Example 4-36, N-[(1-Ethyl-3-methyl-1H-pyrazol-4-yl)methyl]-6-(5-methylquinolin-3-yl)-4-oxo-3-(propan-2-yl)-4,5-dihydropyrazolo[1,5-a]pyrazine-2-carboxamide] | 0.785 nM
8 | CC(C)C(CNC(=O)c1cc2c(=O)[nH]c(-c3ccc4ccccc4c3)cn2n1)n1cc(Cl)cn1 (stereo not shown) [Example 2-22, N-[2-(4-Chlor-1H-pyrazol-1-yl)-3-methylbutyl]-6-(2-naphthyl)-4-oxo-4,5-dihydropyrazolo[1,5-a]pyrazine-2-carboxamide] | 3.85 nM
9 | Cc1ccc(-c2cn3nc(C(=O)NC4(c5ccc(F)cc5)CN(C)C4)c(C(F)(F)F)c3c(=O)[nH]2)cc1Cl [Example 1-153, 6-(3-Chloro-4-methylphenyl)-N-[3-(4-fluorophenyl)-1-methylazetidin-3-yl]-4-oxo-3-(trifluoromethyl)-4,5-dihydropyrazolo[1,5-a]pyrazine-2-carboxamide] | 5.4 nM
10 | CC(C)(C)CNC(=O)c1cc2c(=O)[nH]c(-c3ccc4ccccc4c3)cn2n1 [Example 2-11, N-(2,2-Dimethylpropyl)-6-(2-naphthyl)-4-oxo-4,5-dihydropyrazolo[1,5-a]pyrazine-2-carboxamide] | 7.15 nM
11 | Cc1ccc(-c2cn3nc(C(=O)NC(CCn4cncn4)c4ccccc4)cc3c(=O)[nH]2)cc1C (racemic) [Example 1-12, rac-6-(3,4-Dimethylphenyl)-4-oxo-N-[1-phenyl-3-(1,2,4-triazol-1-yl)propyl]-5H-pyrazolo[1,5-a]-pyrazine-2-carboxamide] | 1.67 nM
12 | Cc1cccc2ncc(-c3cn4nc(C(=O)NC5Cc6ccccc6C5)c(C(C)C)c4c(=O)[nH]3)cc12 [Example 4-38, N-(2,3-Dihydro-1H-inden-2-yl)-6-(5-methylquinolin-3-yl)-4-oxo-3-(propan-2-yl)-4,5-dihydropyrazolo[1,5-a]pyrazine-2-carboxamide] | 1.3 nM
13 | O=C(NC(CN1CCOCC1)c1ccc(F)cc1)c1cc2c(=O)[nH]c(-c3ccc4ccccc4c3)cn2n1 (stereo not shown) [Example 1-40, N-[1-(4-Fluorophenyl)-2-morpholinoethyl]-6-(2-naphthyl)-4-oxo-5H-pyrazolo[1,5-a]pyrazine-2-carboxamide] | 8.27 nM
14 | O=C(N[C@H](CCO)c1ccc(F)cc1)c1cc2c(=O)[nH]c(-c3ccc4c(c3)CCCC4)cn2n1 [Example 1-100, N-[(1R)-1-(4-Fluorophenyl)-3-hydroxypropyl]-4-oxo-6-(5,6,7,8-tetrahydronaphthalen-2-yl)-4,5-dihydropyrazolo[1,5-a]pyrazine-2-carboxamide] | 0.965 nM

Continued, values first:

Row | IC50 | Compound
15 | 1.65 nM | Cc1cc(-c2cn3nc(C(=O)NCC(O)C(F)(F)F)c(C4CC4)c3c(=O)[nH]2)ccc1Cl (single isomer, unassigned) [6-313]
16 | 1.31 nM | O=C(NC(CO)c1ccc(F)cc1)c1cc2c(=O)[nH]c(-c3ccc4cccc(F)c4c3)cn2n1 (stereo not shown) [6-37]
17 | 0.49 nM | O=C(NC(c1ccc(F)cc1)C1(O)CC1)c1nn2cc(-c3ccc(Cl)c(F)c3)[nH]c(=O)c2c1C1CC1 (racemic) [6-96]
18 | 7 nM | Cc1ccc(-c2cn3nc(C(=O)NC(C(C)C)C(O)C(F)(F)F)cc3c(=O)[nH]2)cc1C (stereo not shown) [6-351]
19 | 3.1 nM | O=C(NC1(c2ccc(F)cc2)CC1)c1cc2c(=O)[nH]c(-c3ccc4c(c3)OCCO4)cn2n1 [6-23]
20 | 2.95 nM | Cc1cc(-c2cn3nc(C(=O)NCC(O)(C(F)(F)F)C(F)(F)F)c(C4CC4)c3c(=O)[nH]2)ccc1Cl [6-305]
21 | 3.55 nM | C[C@H](NC(=O)c1cc2c(=O)[nH]c(-c3ccc4c(c3)N(C)CCO4)cn2n1)c1ccc(F)cc1 [6-83]
22 | 1.85 nM | CC(C)(O)[C@@H](NC(=O)c1nn2cc(-c3ccc(Cl)c(OC(F)(F)F)c3)[nH]c(=O)c2c1C1CC1)c1ccc(F)cc1 [6-592]
23 | 3 nM | O=C(N[C@@H](c1ccc(F)cc1)C(F)(F)CO)c1nn2cc(-c3cc(F)c(Cl)cc3F)[nH]c(=O)c2c1C1CC1 [6-585]
24 | 5.6 nM | Cc1ccc(-c2cn3nc(C(=O)NC(c4ccc(C(F)(F)F)cc4)C(C)(C)O)c(C4CC4)c3c(=O)[nH]2)cc1C (single isomer, unassigned) [6-459]
25 | 6.7 nM | Cc1ccc(-c2cn3nc(C(=O)NC4(C)CCC4)cc3c(=O)[nH]2)cc1C [Example 5-5, 6-(3,4-Dimethylphenyl)-N-(1-methylcyclobutyl)-4-oxo-4,5-dihydropyrazolo[1,5-a]pyrazine-2-carboxamide]
26 | 5.75 nM | Cc1ccc(-c2cn3nc(C(=O)NCc4ncc(C(F)(F)F)cc4Cl)cc3c(=O)[nH]2)cc1C [6-9]
27 | 2.35 nM | CC(C)(O)[C@@H](NC(=O)c1nn2cc(-c3ccc(C(F)(F)F)c(Cl)c3)[nH]c(=O)c2c1C1CC1)c1ccc(F)cc1 [6-598]
28 | 2.3 nM | COc1ccc(C2(NC(=O)c3cc4c(=O)[nH]c(-c5ccc6c(c5)OCCO6)cn4n3)CN(C(=O)OC(C)(C)C)C2)cc1 [6-58]
29 | 8.53 nM | CN1CCC(NC(=O)c2nn3cc(-c4ccc5ccccc5c4)[nH]c(=O)c3c2C(F)(F)F)(c2ccc(F)cc2)C1 (racemic) [6-510]
30 | 3.75 nM | Cc1ccc(-c2cn3nc(C(=O)N[C@@H](C)CO)c(C4CCC4)c3c(=O)[nH]2)cc1F [6-576]
31 | 0.41 nM | Cc1ccc(-c2cn3nc(C(=O)N[C@@H](c4ccc(F)cc4)C(F)(F)CO)c(C(F)(F)C(F)(F)F)c3c(=O)[nH]2)cc1C [6-489]
32 | 0.84 nM | Cc1ccc(-c2cn3nc(C(=O)N[C@@H](C)C(C)C)c(C4CC4)c3c(=O)[nH]2)cc1Cl [6-252]
33 | 5.8 nM | Cc1ccc(-c2cn3nc(C(=O)NC(C)C(O)C(F)(F)F)cc3c(=O)[nH]2)cc1C (stereo not shown) [6-355]
34 | 3.25 nM | O=C(NC(c1ccc(F)cc1)C1(O)CC1)c1nn2cc(-c3ccc(Cl)c(F)c3)[nH]c(=O)c2c1C1CC1 (single isomer, unassigned) [6-97]
35 | 1.1 nM | Cc1ccc(-c2cn3nc(C(=O)NCC(N)C(F)(F)F)c(C4CC4)c3c(=O)[nH]2)cc1C (single isomer, unassigned) [6-432]
36 | 3.8 nM | Cc1cc(-c2cn3nc(C(=O)N[C@@H](c4ccc(F)cc4)C(F)(F)CO)c(C(C)C)c3c(=O)[nH]2)ccc1Cl [6-605]
37 | 4.1 nM | COC[C@H](NC(=O)c1nn2cc(-c3ccc(C)c(Cl)c3)[nH]c(=O)c2c1C1CC1)c1ccccc1 [6-277]
38 | 1.53 nM | Cc1ccc(-c2cn3nc(C(=O)NC4(c5ccc(F)cc5)COC4)cc3c(=O)[nH]2)cc1C [6-55]
39 | 7.95 nM | Cc1ccc(-c2cn3nc(C(=O)NC(C)COc4cc(Cl)cc(Cl)c4)cc3c(=O)[nH]2)cc1C (stereo not shown) [6-3]
40 | 4.13 nM | CCC(NC(=O)c1cc2c(=O)[nH]c(-c3ccc4ccccc4c3)cn2n1)C(F)(F)F (stereo not shown) [6-61]
41 | 8.9 nM | O=C(NCC(O)C(F)(F)F)c1nn2cc(-c3ccc4c(c3)OCCO4)[nH]c(=O)c2c1C(F)(F)F (single isomer, unassigned) [6-532]
42 | 2 nM | Cc1cc(-c2cn3nc(C(=O)N[C@@H](c4ccc(F)cc4)[C@H](O)C(F)(F)F)c(C4CC4)c3c(=O)[nH]2)ccc1Cl [6-315]
43 | 2.55 nM | Cc1cc(-c2cn3nc(C(=O)NC(CO)C(F)(F)F)c(C4CC4)c3c(=O)[nH]2)ccc1Cl (single isomer, unassigned) [6-308]
